The text below walks through data of patent US20250114345A1, “COMPOUNDS AND COMPOSITIONS AS CBP/P300 DEGRADERS AND USES THEREOF” (Oncopia Therapeutics, Inc. d/b/a/ SK Life Science Labs, priority 2023, published 2025).

The target of one assay is T1, p300 (Homo sapiens, UniProt Q09472).
T1 construct: host or cells: A549 P300 HiBit cells
In words: P300 degradation, HiBit technology in A549 P300 HiBit cells (2 h). The format is cell-based. The following applies: 2 hrs post treatment; for Dmax: A549, A549 P300 HiBit cells; for DC50: A549 P300 HiBit cells. In short, it runs like this: (§1)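 Cells: A549 HiBiT-tagged lines, 0.2×10^4/well, F-12K + 10% HI-FBS, equilibrated overnight. Tx: serial dilution of cpd (10 mM DMSO stock). Readout: HiBiT lytic reagent, 10 min RT shaking, luminescence → potency, Dmax.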
For orientation: HiBiT is a short tag that completes a luciferase, so light tracks the accessible tagged protein.

A further assay addresses T2, CBP (Homo sapiens, UniProt Q92793).
T2 construct: host or cells: A549 CBP HiBit cells
In words: CBP degradation, HiBit technology in A549 CBP HiBit cells (24 h). The format is cell-based. As to conditions: 24 hrs post treatment. In short, it runs like this: as §1

T1 sequence (Q09472 whole entry): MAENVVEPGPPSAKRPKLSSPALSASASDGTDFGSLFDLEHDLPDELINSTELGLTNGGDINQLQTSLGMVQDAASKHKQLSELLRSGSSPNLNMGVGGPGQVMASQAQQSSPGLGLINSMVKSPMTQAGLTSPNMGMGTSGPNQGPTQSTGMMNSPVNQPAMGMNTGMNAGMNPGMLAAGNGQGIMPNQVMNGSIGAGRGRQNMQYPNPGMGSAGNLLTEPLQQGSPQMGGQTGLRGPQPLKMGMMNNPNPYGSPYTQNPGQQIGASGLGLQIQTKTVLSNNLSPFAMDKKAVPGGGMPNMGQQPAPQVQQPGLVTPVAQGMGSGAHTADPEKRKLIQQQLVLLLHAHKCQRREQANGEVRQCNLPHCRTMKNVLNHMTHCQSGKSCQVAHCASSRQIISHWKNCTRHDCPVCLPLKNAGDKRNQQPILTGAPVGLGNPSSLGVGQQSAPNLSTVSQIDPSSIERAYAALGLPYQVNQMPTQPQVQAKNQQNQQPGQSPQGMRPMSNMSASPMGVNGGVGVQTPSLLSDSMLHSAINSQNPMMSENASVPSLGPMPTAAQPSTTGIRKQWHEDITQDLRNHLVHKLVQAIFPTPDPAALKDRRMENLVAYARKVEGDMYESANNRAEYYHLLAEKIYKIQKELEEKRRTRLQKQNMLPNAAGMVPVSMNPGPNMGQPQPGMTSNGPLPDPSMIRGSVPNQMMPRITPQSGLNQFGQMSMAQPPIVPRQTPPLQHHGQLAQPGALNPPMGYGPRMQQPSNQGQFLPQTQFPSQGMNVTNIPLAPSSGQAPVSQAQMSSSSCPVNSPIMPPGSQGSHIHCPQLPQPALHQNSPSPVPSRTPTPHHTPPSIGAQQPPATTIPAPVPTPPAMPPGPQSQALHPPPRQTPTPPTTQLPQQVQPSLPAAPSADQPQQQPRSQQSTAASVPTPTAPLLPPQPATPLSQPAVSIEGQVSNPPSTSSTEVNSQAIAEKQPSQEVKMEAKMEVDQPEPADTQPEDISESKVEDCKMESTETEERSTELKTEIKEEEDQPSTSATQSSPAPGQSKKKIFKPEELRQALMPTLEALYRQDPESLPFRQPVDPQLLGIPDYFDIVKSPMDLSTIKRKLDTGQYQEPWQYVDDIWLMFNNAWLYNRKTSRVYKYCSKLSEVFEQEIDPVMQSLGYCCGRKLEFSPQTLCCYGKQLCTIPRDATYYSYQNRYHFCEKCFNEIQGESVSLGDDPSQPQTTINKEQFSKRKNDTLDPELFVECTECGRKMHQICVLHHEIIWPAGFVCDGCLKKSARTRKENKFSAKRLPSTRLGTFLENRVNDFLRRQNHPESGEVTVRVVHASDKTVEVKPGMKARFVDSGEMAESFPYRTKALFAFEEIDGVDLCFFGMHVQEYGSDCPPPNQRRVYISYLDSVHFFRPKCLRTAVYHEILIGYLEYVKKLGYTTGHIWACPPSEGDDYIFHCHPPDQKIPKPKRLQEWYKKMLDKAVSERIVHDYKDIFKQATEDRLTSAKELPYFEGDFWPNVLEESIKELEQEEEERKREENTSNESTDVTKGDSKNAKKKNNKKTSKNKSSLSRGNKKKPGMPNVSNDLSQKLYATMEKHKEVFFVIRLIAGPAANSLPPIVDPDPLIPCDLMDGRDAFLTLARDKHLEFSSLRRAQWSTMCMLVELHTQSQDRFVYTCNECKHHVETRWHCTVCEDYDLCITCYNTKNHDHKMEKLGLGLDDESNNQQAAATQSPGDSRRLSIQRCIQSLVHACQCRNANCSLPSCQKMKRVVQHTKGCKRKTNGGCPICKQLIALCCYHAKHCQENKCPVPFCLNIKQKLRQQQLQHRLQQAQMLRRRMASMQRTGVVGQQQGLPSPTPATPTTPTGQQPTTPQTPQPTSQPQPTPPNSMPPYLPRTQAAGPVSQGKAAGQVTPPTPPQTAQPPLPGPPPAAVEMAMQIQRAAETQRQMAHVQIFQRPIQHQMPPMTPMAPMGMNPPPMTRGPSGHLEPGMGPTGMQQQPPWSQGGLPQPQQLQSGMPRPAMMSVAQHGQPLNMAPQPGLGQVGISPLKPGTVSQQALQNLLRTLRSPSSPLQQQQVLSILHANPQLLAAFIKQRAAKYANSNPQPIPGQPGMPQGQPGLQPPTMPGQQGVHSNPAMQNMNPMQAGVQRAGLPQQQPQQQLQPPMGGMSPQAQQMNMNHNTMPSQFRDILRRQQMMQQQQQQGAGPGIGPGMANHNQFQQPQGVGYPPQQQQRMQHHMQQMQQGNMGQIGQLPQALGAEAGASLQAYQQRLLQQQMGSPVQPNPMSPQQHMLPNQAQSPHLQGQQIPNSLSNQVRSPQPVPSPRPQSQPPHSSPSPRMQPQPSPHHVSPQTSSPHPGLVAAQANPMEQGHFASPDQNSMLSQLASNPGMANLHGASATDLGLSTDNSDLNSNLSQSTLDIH
T2 sequence (Q92793 whole entry): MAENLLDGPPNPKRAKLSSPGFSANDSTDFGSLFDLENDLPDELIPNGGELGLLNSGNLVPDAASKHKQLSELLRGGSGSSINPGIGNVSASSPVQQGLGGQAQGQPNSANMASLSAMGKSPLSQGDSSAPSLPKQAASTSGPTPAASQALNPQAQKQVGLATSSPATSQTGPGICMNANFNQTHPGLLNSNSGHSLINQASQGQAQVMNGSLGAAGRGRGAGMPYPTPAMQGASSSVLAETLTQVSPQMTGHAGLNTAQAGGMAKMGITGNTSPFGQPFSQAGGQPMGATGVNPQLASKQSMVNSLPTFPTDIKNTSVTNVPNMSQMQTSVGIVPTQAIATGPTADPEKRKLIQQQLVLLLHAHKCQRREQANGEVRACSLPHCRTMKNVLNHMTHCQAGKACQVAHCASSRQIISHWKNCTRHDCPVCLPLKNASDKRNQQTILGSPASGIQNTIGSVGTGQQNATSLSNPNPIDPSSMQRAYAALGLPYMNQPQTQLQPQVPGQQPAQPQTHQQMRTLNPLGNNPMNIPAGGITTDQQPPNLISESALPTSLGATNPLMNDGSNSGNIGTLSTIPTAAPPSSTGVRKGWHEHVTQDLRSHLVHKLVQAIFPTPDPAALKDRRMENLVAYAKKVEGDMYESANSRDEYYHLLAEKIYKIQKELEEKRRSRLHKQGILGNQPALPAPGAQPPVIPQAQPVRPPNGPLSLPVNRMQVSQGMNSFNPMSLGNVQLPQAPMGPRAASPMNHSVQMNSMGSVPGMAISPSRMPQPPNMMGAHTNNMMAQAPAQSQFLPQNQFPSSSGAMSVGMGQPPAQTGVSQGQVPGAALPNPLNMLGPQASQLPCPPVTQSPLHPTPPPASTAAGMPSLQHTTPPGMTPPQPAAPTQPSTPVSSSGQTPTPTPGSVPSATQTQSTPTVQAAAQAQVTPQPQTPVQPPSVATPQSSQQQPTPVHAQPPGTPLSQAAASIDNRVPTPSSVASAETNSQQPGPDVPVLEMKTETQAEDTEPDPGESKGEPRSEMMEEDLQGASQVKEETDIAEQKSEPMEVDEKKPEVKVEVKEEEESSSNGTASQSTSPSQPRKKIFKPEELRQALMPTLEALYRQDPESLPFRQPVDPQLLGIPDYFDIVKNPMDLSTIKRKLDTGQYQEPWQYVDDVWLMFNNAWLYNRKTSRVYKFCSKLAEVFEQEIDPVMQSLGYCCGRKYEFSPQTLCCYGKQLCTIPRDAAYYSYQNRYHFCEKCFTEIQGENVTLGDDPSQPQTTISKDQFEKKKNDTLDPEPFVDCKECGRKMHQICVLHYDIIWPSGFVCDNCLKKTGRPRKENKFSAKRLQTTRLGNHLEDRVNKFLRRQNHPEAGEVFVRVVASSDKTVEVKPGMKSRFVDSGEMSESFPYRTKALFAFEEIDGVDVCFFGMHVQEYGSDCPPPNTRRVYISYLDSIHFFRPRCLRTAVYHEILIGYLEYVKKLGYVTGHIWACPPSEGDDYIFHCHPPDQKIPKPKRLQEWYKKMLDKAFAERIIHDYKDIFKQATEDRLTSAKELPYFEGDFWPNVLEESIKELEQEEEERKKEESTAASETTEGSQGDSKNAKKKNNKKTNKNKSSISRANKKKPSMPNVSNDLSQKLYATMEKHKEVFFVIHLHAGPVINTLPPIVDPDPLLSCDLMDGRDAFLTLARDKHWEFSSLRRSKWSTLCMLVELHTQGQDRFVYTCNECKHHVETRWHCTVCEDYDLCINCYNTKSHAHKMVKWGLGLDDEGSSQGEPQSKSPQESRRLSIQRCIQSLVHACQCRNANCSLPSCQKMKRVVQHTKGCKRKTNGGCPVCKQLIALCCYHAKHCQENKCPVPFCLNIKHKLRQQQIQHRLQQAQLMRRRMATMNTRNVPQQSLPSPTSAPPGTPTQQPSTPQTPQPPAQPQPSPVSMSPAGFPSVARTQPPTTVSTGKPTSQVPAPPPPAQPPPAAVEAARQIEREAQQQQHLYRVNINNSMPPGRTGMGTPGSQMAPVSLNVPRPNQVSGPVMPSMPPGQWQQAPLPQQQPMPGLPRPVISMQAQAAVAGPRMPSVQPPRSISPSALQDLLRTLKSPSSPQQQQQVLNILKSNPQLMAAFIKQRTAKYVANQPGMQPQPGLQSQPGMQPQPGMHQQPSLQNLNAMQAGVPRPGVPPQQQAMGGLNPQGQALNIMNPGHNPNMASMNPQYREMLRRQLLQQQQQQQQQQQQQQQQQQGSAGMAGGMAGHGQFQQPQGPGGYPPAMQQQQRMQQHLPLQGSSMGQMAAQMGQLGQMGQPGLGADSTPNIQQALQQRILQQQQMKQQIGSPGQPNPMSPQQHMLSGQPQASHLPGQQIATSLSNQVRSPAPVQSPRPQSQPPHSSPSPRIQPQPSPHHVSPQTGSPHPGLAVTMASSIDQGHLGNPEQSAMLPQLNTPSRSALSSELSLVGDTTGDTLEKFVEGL

What is called Dmax is the largest share of the target that was removed. A lower Dmax goes with a partial loss of target. What is called DC50 is the midpoint of the concentration-degradation curve. A high value points to degradation only at high concentration. At p300, `Cc1cc2c(N3CCCc4nc(-c5ccc(C(=O)NCC#Cc6ccc7occ(C8CCC(=O)NC8=O)c7c6)nc5)ncc43)nc(N3CC(F)C3)cc2n(C)c1=O` (stereo not drawn) [Example B68, N-(3-(3-(2,6-dioxopiperidin-3-yl)benzofuran-5-yl)prop-2-yn-1-yl)-5-(5-(7-(3-fluoroazetidin-1-yl)-1,3-dimethyl-2-oxo-1,2-dihydro-1,6-naphthyridin-5-yl)-5,6,7,8-tetrahydropyrido [3,2-d]pyrimidin-2-yl)picolinamide] registered a Dmax of 60 to 79% and a DC50 of 1 to 9.9 nM. Further, at CBP, the DC50 is more than 1000 nM and the Dmax was less than 20%.
On p300, `Cn1c(=O)n(C)c2c(N3CCC(C)(O)CC3)cc(-c3cccc4cc(-c5ccc(C(=O)NCC#Cc6cccc(NC7CCC(=O)NC7=O)c6)nc5)ncc34)cc21` (stereo not drawn) [Example A271, N-(3-(3-((2,6-dioxopiperidin-3-yl)amino)phenyl)prop-2-yn-1-yl)-5-(8-(7-(4-hydroxy-4-methylpiperidin-1-yl)-1,3-dimethyl-2-oxo-2,3-dihydro-1H-benzo[d]imidazol-5-yl)isoquinolin-3-yl)picolinamide] gave a Dmax of more than 80% and a DC50 of less than 1 nM. Further, on CBP, the DC50 was in the range of 1 to 9.9 nM and the Dmax lay in the range of 60 to 79%.
For `Cc1cc2c(-c3cccc4cc(-c5ccc(C(=O)NCC#Cc6ccc7occ(C8CCC(=O)NC8=O)c7c6)nc5)ncc34)nc(N3CC(O)C3)cc2n(C)c1=O` (stereo not drawn) [Example B66, N-(3-(3-(2,6-dioxopiperidin-3-yl)benzofuran-5-yl)prop-2-yn-1-yl)-5-(8-(7-(3-hydroxy-azetidin-1-yl)-1,3-dimethyl-2-oxo-1,2-dihydro-1,6-naphthyridin-5-yl)isoquinolin-3-yl) picolinamide] the same measures were more than 80%, less than 1 nM, more than 1000 nM and less than 20%.
For `Cc1cc(-c2ncc3c(n2)CCCN3c2cc(C3CCOCC3)cc3c2cc(C)c(=O)n3C)cnc1C(=O)NCC#Cc1cc2c(C3CCC(=O)NC3=O)cccc2o1` (stereo not drawn) [Example B141, 5-(5-(1,3-dimethyl-2-oxo-7-(tetrahydro-2H-pyran-4-yl)-1,2-dihydroquinolin-5-yl)-5,6,7,8-tetrahydropyrido[3,2-d]pyrimidin-2-yl)-N-(3-(4-(2,6-dioxopiperidin-3-yl)benzofuran-2-yl)prop-2-yn-1-yl)-3-methylpicolinamide] the same measures were more than 80%, less than 1 nM, 10 to 99 nM and 20 to 39%.
For `Cc1cc2c(N3CCCc4nc(-c5ccc(C(=O)NCC#Cc6ccc7occ([C@@H]8CCC(=O)NC8=O)c7c6)nc5)ncc43)nc(N3CCOCC3)cc2n(C)c1=O` [Example B73, (S)-5-(5-(1,3-dimethyl-7-morpholino-2-oxo-1,2-dihydro-1,6-naphthyridin-5-yl)-5,6,7,8-tetrahydropyrido[3,2-d]pyrimidin-2-yl)-N-(3-(3-(2,6-dioxopiperidin-3-yl)benzofuran-5-yl)prop-2-yn-1-yl)picolinamide] the same measures were more than 80%, 1 to 9.9 nM, more than 1000 nM and less than 20%.
On p300, `Cc1cc2c(N3CCCc4nc(-c5ccc(C(=O)NCC#Cc6ccc7occ(C8CCC(=O)NC8=O)c7c6)nc5)ccc43)cc(C3CCOCC3)cc2n(C)c1=O` (stereo not drawn) [Example B127, 5-(5-(1,3-dimethyl-2-oxo-7-(tetrahydro-2H-pyran-4-yl)-1,2-dihydroquinolin-5-yl)-5,6,7,8-tetrahydro-1,5-naphthyridin-2-yl)-N-(3-(3-(2,6-dioxopiperidin-3-yl)benzofuran-5-yl)prop-2-yn-1-yl)picolinamide] showed a Dmax of more than 80% and a DC50 of 1 to 9.9 nM. In addition, on CBP, the DC50 was more than 1000 nM and the Dmax is less than 20%.
For `Cc1cc(-c2ncc3c(n2)CCCN3c2ccc3c(c2)n(C)c(=O)n3C)cnc1C(=O)NCC#Cc1ccc2occ(C3CCC(=O)NC3=O)c2c1` (stereo not drawn) [Example A79, 5-(5-(1,3-dimethyl-2-oxo-2,3-dihydro-1H-benzo[d]imidazol-5-yl)-5,6,7,8-tetrahydropyrido[3,2-d]pyrimidin-2-yl)-N-(3-(3-(2,6-dioxo-piperidin-3-yl)benzofuran-5-yl)prop-2-yn-1-yl)-3-methylpicolinamide] the same measures were more than 80%, 1 to 9.9 nM, more than 1000 nM and less than 20%.
Regarding `CC(C)c1cc(-c2cccc3cc(-c4ccc(C(=O)NCC#Cc5cccc(NC67CC(C6)C(=O)NC7=O)c5)nc4)ncc23)cc2c1n(C)c(=O)n2C` [Example A2, N-(3-(3-((2,4-Dioxo-3-azabicyclo[3.1.1]heptan-1-yl)amino)phenyl)prop-2-yn-1-yl)-5-(8-(7-isopropyl-1,3-dimethyl-2-oxo-2,3-dihydro-1H-benzo[d]imidazol-5-yl)isoquinolin-3-yl)picolinamide], at p300, the Dmax is more than 80% and the DC50 was in the range of 10 to 99 nM. In addition, at CBP, the DC50 is more than 1000 nM and the Dmax was less than 20%.
For `Cn1c(=O)n(C)c2cc(-c3cccc4cc(-c5ccc(C(=O)NCC#Cc6cc7c([C@@H]8CCC(=O)NC8=O)cccc7o6)nc5)ncc34)ccc21` [Example A171, (S)-5-(8-(1,3-dimethyl-2-oxo-2,3-dihydro-1H-benzo[d]imidazol-5-yl)isoquinolin-3-yl)-N-(3-(4-(2,6-dioxopiperidin-3-yl)benzofuran-2-yl)prop-2-yn-1-yl)picolinamide] the same measures were more than 80%, 1 to 9.9 nM, more than 1000 nM and less than 20%.
Regarding `Cc1cc(-c2ncc(N(C)c3cc(C4CCOCC4)cc4c3cc(C)c(=O)n4C)cn2)cnc1C(=O)NCC#Cc1cc2c(C3CCC(=O)NC3=O)cccc2o1` (stereo not drawn) [Example B59, 5-(5-((1,3-dimethyl-2-oxo-7-(tetrahydro-2H-pyran-4-yl)-1,2-dihydroquinolin-5-yl) (methyl)amino)pyrimidin-2-yl)-N-(3-(4-(2,6-dioxopiperidin-3-yl)benzofuran-2-yl)prop-2-yn-1-yl)-3-methylpicolinamide], at p300, the Dmax is more than 80% and the 50% degradation concentration (DC50) was in the range of 1 to 9.9 nM. At CBP, this compound came in with a DC50 of more than 1000 nM and a Dmax of less than 20%.
Taken in the same sequence, the figures for `Cc1cc(-c2ncc3c(n2)OCCN3c2ccc3c(c2)n(C)c(=O)n3C)cnc1C(=O)NCC#Cc1cc2c(C3CCC(=O)NC3=O)ccc(F)c2o1` (stereo not drawn) [Example A203, 5-(5-(1,3-dimethyl-2-oxo-2,3-dihydro-1H-benzo[d]imidazol-5-yl)-6,7-dihydro-5H-pyrimido[4,5-b][1,4]oxazin-2-yl)-N-(3-(4-(2,6-dioxopiperidin-3-yl)-7-fluoro-benzofuran-2-yl)prop-2-yn-1-yl)-3-methylpicolinamide] were 60 to 79%, 10 to 99 nM, more than 1000 nM and less than 20%.
For `Cc1cc2c(N3CCCc4nc(-c5ccc(C(=O)NCC#Cc6ccc7occ([C@@H]8CCC(=O)NC8=O)c7c6)nc5)ncc43)cc(C3CCOCC3)cc2n(C)c1=O` [Example B55, (S)-5-(5-(1,3-dimethyl-2-oxo-7-(tetrahydro-2H-pyran-4-yl)-1,2-dihydroquinolin-5-yl)-5,6,7,8-tetrahydropyrido[3,2-d]pyrimidin-2-yl)-N-(3-(3-(2,6-dioxopiperidin-3-yl)benzofuran-5-yl)prop-2-yn-1-yl)picolinamide] the same measures were more than 80%, 1 to 9.9 nM, more than 1000 nM and less than 20%.
